Literature values, collected in patent US20060142288A1, “Combinations and methods for headaches” (priority 2004, published 2006).

Tests used:
canine COX-3 = target: T1, canine COX-3 (Canis lupus familiaris, UniProt Q8HZR1); details: canine COX-3 compared with murine COX-1 and COX-2
T1 sequence (Q8HZR1 1-633 isoform Q8HZR1-2): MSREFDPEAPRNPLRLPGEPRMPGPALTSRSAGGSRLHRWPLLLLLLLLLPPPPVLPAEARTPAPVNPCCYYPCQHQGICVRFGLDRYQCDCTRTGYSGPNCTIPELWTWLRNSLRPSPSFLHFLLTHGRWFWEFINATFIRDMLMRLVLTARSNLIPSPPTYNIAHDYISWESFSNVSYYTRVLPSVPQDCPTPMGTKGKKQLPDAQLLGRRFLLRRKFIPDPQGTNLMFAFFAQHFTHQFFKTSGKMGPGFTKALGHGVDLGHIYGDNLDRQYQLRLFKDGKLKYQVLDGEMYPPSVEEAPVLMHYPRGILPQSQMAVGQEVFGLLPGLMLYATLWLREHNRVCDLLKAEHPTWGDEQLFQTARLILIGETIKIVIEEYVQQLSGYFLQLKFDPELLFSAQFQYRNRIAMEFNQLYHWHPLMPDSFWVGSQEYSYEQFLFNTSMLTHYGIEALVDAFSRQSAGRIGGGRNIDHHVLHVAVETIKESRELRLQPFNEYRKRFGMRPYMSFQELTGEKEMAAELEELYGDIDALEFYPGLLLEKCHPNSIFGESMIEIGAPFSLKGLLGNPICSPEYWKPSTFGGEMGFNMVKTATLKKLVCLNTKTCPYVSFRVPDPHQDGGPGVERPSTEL

[1] = 13.5 mg/kg/day or ~1 g per day
[2] = 650 mg/day, migraine patients
[3] = 500 mg daily, six year trial
[4] = ASA 500 mg TID, metoprolol in the same study

For `CCOc1ccc(NC(C)=O)cc1` [phenacetin], which “selective inhibition of COX-3” value (canine COX-3) is on record?
Its value is “selectively inhibit”.

Which “selective inhibition of COX-3” value (canine COX-3) does the source give for `CC(=O)Nc1ccc(O)cc1` [acetaminophen] here?
The value was “selectively inhibit”.

With `Cc1c(N(C)CS(=O)(=O)[O-])c(=O)n(-c2ccccc2)n1C.[Na+]` [dipyrone] as the compound, how does the “selective inhibition of COX-3” value (canine COX-3) read?
The value was “selectively inhibit”.

Which “selective inhibition of COX-3” value (canine COX-3) does the source give for `Cc1cc(=O)n(-c2ccccc2)n1C` [antipyrine] here?
Its value is “selectively inhibit”.

Which “frequency, severity and duration of migraine attacks” value [1] does the source give for `CC(=O)Oc1ccccc1C(=O)O` [ASA, acetylsalicyclic acid] here?
Its value is “significantly decrease”.

And the “patients with a reduction of more than 50% in headache frequency” value [2]?
The value was 9 of 12.

And the overall migraine frequency (500 mg TID, p<0.001)?
Its overall migraine frequency is “reduced significantly”.

What about the “subjects with a reduction of attacks >50% (number of subjects)” value [4] of the same compound?
Its value is 3 of 22.

And the “subjects with a reduction of attacks >50% (percent of subjects)” value [4]?
Its value is 14%.

And the “reduction of the incidence of migraine” value [3]?
The value was 30%.
